# Laboratory results reported in article PMC10447463, “Data-mining unveils structure–property–activity correlation of viral infectivity enhancing self-assembling peptides” (Nature Communications, 2023).
# Columns and labels:
# [1] = assay type: physicochemical; conditions: for ThT Cat. / ThT-Fluorescence (categorical): ThT-active if fluorescence at least twice the control
# Method in brief: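 Preformed peptide fibrils (1 mg/mL) mixed with 50 µM ThT in PBS, 15 min at RT, fluorescence ex 440/em 488 nm versus PBS blank, triplicates. Zeta potential: peptides at 1 mg/mL in PBS pH 7.4, aged 1 d at RT, diluted in 1 mM KCl, Smoluchowski from electrophoretic mobility.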
# [2] = Zeta-potential measurement; assay type: physicochemical; conditions: for Zeta pot. / mV: 1 mg/mL in PBS pH 7.4 from 10 mg/mL DMSO stock, 1 d RT, 60 µL diluted in 600 µL 1 mM KCl, Zetasizer Nano ZS, Smoluchowski, mean of triplicate; for Zeta-Potential / mV: mean, Figure 7B
# Method in brief: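 Zeta potentials of aggregated peptides come from electrophoretic mobility (Smoluchowski model) in 1 mM KCl after a 1 d RT incubation at 1 mg/mL in PBS, pH 7.4.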
Substance,ThT Cat. / ThT-Fluorescence (categorical) [1],Zeta pot. / mV [2] [mV],Zeta-Potential / mV [2] [mV],"Tht rel to blank (42.1851851851852) ([1]; ThT fluorescence relative to blank, blank = 42.1851851851852)",Tht category (> 1.5 to blank = +) ([1]; category 1/0),Zeta Pot. / mV [2] [mV],Zeta category ( +1 = if > 4 mV;-1 = if < -4 mV; 0 = -4mV to 4 mV) [2]
DFNKF [reference compound],0 (ThT-inactive (N-Fold <2)),-11.8,-11.77,,,,
GAITIG-NH2 [reference compound],0 (ThT-inactive (N-Fold <2)),-5.4,-5.36,,,,
GNNQQNY [reference compound],0 (ThT-inactive (N-Fold <2)),-6.6,-6.62,,,,
GQTVTK [reference compound],0 (ThT-inactive (N-Fold <2)),-5.3,-5.26,,,,
IIKIIK [reference compound],0 (ThT-inactive (N-Fold <2)),-7.0,-7,,,,
NSGAITIG-NH2 [reference compound],0 (ThT-inactive (N-Fold <2)),-8.4,-8.45,,,,
RCELARTLKR [reference compound],0 (ThT-inactive (N-Fold <2)),-0.9,-0.85,,,,
RIRIQIC [PS07],,,,1.32,0 (ThT-inactive (N-Fold <2)),16,1 (+1 = if > 4 mV)
VLYVGSKT [reference compound],0 (ThT-inactive (N-Fold <2)),-9.1,-9.07,,,,
VQIVYK [reference compound],0 (ThT-inactive (N-Fold <2)),-2.7,-2.66,,,,
